From patent publication US20260250337A1, “HYBRID ANTIMICROBIAL PEPTIDES” (UNIVERSIDADE FEDERAL DO ABC, priority 2023, published 2026)
Entries after “also recorded” stand apart in the source; their conditions may differ. No end group written: not given here.

Tests used:
[1] = Circular dichroism, helical fraction (Lifson-Roig); type: physicochemical; conditions: peptide 50 μmol L^−1; for Helical fraction (fH) PBS: PBS 10 mmol L^−1, pH 7.4; for Helical fraction (fH) POPC: POPC 10 mmol L^−1; for Helical fraction (fH) POPC:DOPE: POPC:DOPE 3:1, mol:mol; for Helical fraction (fH) POPC:DOPE / Helical fraction (fH) POPC:POPG: 10 mmol L^−1; for Helical fraction (fH) POPC:POPG: POPC:POPG 3:1, mol:mol; for Helical fraction (fH) SDS: SDS 20 mmol L^−1 in water; for Helical fraction (fH) TFE/Water: TFE in water (3:2, v:v)
Protocol: Method. Circular dichroism (CD) assays were performed with a Spectropolarimeter Jasco Mod. J-815 (JascoCorp). CD spectra were obtained in Far-UV (195-260 nm), and analyzed in the following solutions: water, 2,2,2-trifluoroethanol (TFE) in water (3:2, v:v), phosphate buffer saline (PBS, 10 mmol L^−1, pH 7.4), sodium dodecyl sulfate (SDS 20 mmol L^−1) in water, palmitoyloleoylphosphatidylcholine (POPC; 10 mmol L^−1), palmitoyloleoylphosphatidylcholine:dioleylphosphatidylethanolamine (POPC:DOPE; 3:1, mol:mol, 10 mmol L^−1) and palmitoyloleoylphosphatidylcholine:palmitoyloleoylphosphatidylglycerol (POPC:POPG; 3:1, mol:mol, 10 mmol L^−1) at a peptide concentration of 50 μmol L^−1. These experiments were performed as described in detail by Pedron et al.^62.

[2] = tested on: MCF-7 human breast cancer cells; test: Anticancer activity, MTT assay; type: cell-based; conditions: incubation time not stated
Protocol: The anticancer activity assays were performed using MCF-10A human breast epithelial cells and MCF-7 mammary cancer cells as previously described by Pedron et al. 86. Briefly, the day before treatment, the cells were incubated at 37° C. and 5% CO2 for 24 h. The cells were treated with peptides ranging from 12.5 to 100 μmol L^−1 (MCF10-A cells) and 0.8 to 100 μmol L^−1 (MCF-7 cells) for 4 h and 24 h at 37° C., and cell viability was measured using 3-(4,5-Dimethylthiazol-2-yl)-2,5-diphenyltetrazolium bromide (MTT) assays 87. Three independent replicates were performed in each case.

[3] = tested on: human erythrocytes; test: Hemolytic activity assay; type: cell-based; conditions: for Hemolytic activity, concentration of peptide needed to kill 10% of red blood cells / MHC: human erythrocytes, 1 h; for MHC: room temperature, concentration with approximately 0% of hemolytic activity
Protocol: Method. Assays against freshly collected human erythrocytes were performed following protocols described by Pedron et al. 62. Briefly, peptide aliquots at concentrations ranging from 0.1 to 100 μmol L−1 were incubated with a suspension of erythrocytes at room temperature for 1 h. The samples were then centrifuged, and the absorbance of the supernatant was measured at 405 nm. The MHC (maximal non-hemolytic concentration) was determined as the maximal concentration at which 100% of the erythrocytes were viable. The surfactant SDS and PBS buffer were used as positive88, 89 and negative controls, respectively. Sodium heparin was used as an anticoagulant when collecting human blood. Three biological repeats were performed.

[4] = tested on: S. epidermidis ATCC 12228; test: Liquid growth inhibition assay, MIC; type: cell-based; conditions: 37° C., 18 h
[5] = tested on: S. marcescens ATCC 4112; test: Liquid growth inhibition assay, MIC; type: cell-based, Serratia marcescens; conditions: 37° C., 18 h
Protocol: (§1) Initially, the antimicrobial activity was determined by liquid growth inhibition assays, as previously described by Pedron et al.^62. Briefly, Peptone Broth and Potato Dextrose Broth (Invitrogen) were used for antibacterial and antifungal assays, respectively. Two-fold serial dilutions of peptides (0.09-50 μmol L^−1) and microorganisms (Serratia marcescens ATCC 4112, Enterobacter cloacae β-12, Micrococcus luteus A270, Bacillus megaterium ATCC 10778, Bacillus subtilis ATCC 6633, Candida albicans MDM8, and Candida tropicalis IOC 4560) were incubated at 37° C. for 18 h (for bacteria) or 24 h (for fungi), and microbial growth was assessed by absorbance measurements at 595 nm. Experiments were performed in three biological repeats.

[6] = tested on: E. cloacae β-12; test: Liquid growth inhibition assay, MIC; type: cell-based, Enterobacter cloacae; conditions: 37° C., 18 h
Protocol: as §1

[7] = tested on: Plasmodium gallinaceum sporozoites; test: Antiplasmodial activity, fluorescence microscopy; type: cell-based; conditions: for P. gallinaceum (% sporozoites at 0.8 μmol L^−1): fluorescent (propidium iodide stained) sporozoites, 37° C., 1 h; for antiplasmodial activity: P. gallinaceum sporozoites, concentration range tested
Protocol: Method. The activity of the peptides against Plasmodium gallinaceum sporozoites was determined by fluorescence microscopy, as previously described by Silva et. al.^83. Briefly, 9,000 sporozoites were isolated from the glands of infected Aedes aegypti mosquitos and incubated with serially diluted peptides (ranging from 0.1 to 1.6 μmol L^−1) at 37° C. for 1 h. A PBS solution and the surfactant digitonin^84, 85 were used as negative and positive controls, respectively. Propidium iodide was used to stain dead cells. Assays were executed using fluorescence microscopy. Three biological repeats each with three different mosquito batches (n=9) were used.

[8] = tested on: M. luteus A270; test: Liquid growth inhibition assay, MIC; type: cell-based, Micrococcus luteus; conditions: 37° C., 18 h
Protocol: as §1

[9] = tested on: C. tropicalis IOC 4560; test: Liquid growth inhibition assay, MIC (antifungal); type: cell-based, Candida tropicalis; conditions: 37° C., 24 h
Protocol: as §1

[10] = at 100 μmol L^−1; cited from earlier work
[11] = tested on: C. albicans MDM8; test: Liquid growth inhibition assay, MIC (antifungal); type: cell-based, Candida albicans; conditions: 37° C., 24 h
Protocol: as §1

[12] = Resistance to degradation in fetal bovine serum; type: in vitro ADME; conditions: fetal bovine serum 25% in water, 37° C.; for remaining at 0.5 h: 30 min, read-out: remaining peptide, 30 min; for remaining at 1 h: read-out: remaining peptide, 1 h; for remaining at 2 h: read-out: remaining peptide, 2 h; for remaining at 4 h: read-out: remaining peptide, 4 h
Protocol: The resistance to proteolytic degradation of the hybrid peptides was assessed by exposing them for 6 h to serum peptidases in a fetal bovine serum solution^68, 69 (FIG. 5a and Table S4). The peptide degradation kinetics were calculated by integrating the peak area of the peak in relation to the peptide at the beginning of the experiment (time=0) and comparing it to the integrated peak area relative to the peptides after exposure to the enzymes at time points: 0.5, 1, 2, 4, and 6 h (FIG. 5a and Table S4). […] However, AV was resistant to degradation against proteases, with almost 40% peptide content remaining after 4 h of exposure (FIG. 5a and Table S4). […] VP was almost entirely degraded after 30 min (22% of peptide remaining). […] D-amino acid substitutions have been used as alternatives to prevent the degradation of AMPs. For example, Qiu et. al. described a protonectin analog with a D-Lys residue in position 10 as an alternative to protonectin; this analog is not degraded and has higher antimicrobial activity against bacteria and fungi than the original peptide.
Methods. Stability assays were performed following the protocol described by Torres et al.^71. Briefly, a peptide solution was added to GIBCO fetal bovine serum diluted to 25% in water and kept at 37° C. The degradation kinetics were monitored by liquid chromatography and the percentage of peptide remaining was calculated by integrating the peptide peak area. The experiments were performed as three independent replicates, and aliquots were taken at 0, 0.5, 1, 2, 4, and 6 h.

[13] = tested on: B. megaterium ATCC 10778; test: Liquid growth inhibition assay, MIC; type: cell-based, Bacillus megaterium; conditions: 37° C., 18 h
Protocol: as §1

[14] = tested on: bacterial strains; test: Antimicrobial activity over the panel of strains; type: cell-based; conditions: range of concentrations tested
Protocol: as §1
Method. The minimal inhibitory concentration (MIC) against the ESKAPE pathogens was determined using the broth microdilution method^81, 82 in Luria-Bertani (LB) medium. The MIC value was defined as the lowest concentration of peptide at which no microbial growth was observed. A. baumannii ATCC19606, E. coli ATCC11775, E. coli AIC221, E. coli AIC222, K. pneumoniae ATCC13883, S. aureus ATCC12600 P. aeruginosa PAO1, and P. aeruginosa PA14 were incubated on agar plates, and after 24 h, three isolated colonies were inoculated to 5 mL of Luria-Bertani (LB) broth and maintained at 37° C. overnight with shaking. Peptides were then added to 96-well polystyrene microtiter plates at concentrations ranging from 0 to 128 μmol L^−1, and 5×10^5 CFU mL^−1 of each bacterium was inoculated in each well. The plates were incubated at 37° C. for 24 h. Bacterial growth was measured using a microplate reader at 610 nm. Three independent replicates were performed.

[15] = bovine, fetal bovine serum, 25% in water
[16] = bovine, fetal bovine serum, 25% in water, 4 h

In the case of “SLLSLIRKLIT-NH2 [Decoralin, Ser-Leu-Leu-Ser-Len-Ile-Arg-Lys-Leu-Ile-Thr, reference compound]”, the “Helical fraction (fH) PBS” value [1] was 0.06, the “Helical fraction (fH) POPC” value [1] was 0.23 and the “Helical fraction (fH) POPC:DOPE” value [1] was 0.19. The “Helical fraction (fH) POPC:POPG” value [1] was 0.40, the “Helical fraction (fH) SDS” value [1] was 0.22 and the “Helical fraction (fH) TFE/Water” value [1] was 0.29. For the same substance, the “Helical fraction (fH) Water” value [1] was 0.05, the “concentration with activity against MCF-7 human breast cancer cells” value [2] was 50 µmol/L and the “Hemolytic activity, concentration of peptide needed to kill 10% of red blood cells” value [3] was 1.6 µmol/L. The MHC [3] was 1.6 µmol/L, the “MIC S. epidermidis ATCC 12228” value [4] was 6.3 µM and the “MIC S. marcescens ATCC 4112” value [5] was 3.1 µM. The “MIC E. cloacae β-12” value [6] was 6.3 µM, the “P. gallinaceum (% sporozoites at 0.8 μmol L^−1)” value [7] was 0% and the “antiplasmodial activity” value [7] was “no activity; also recorded: did not present antiplasmodial activity”. For the same substance, the “MIC M. luteus A270” value [8] was 0.8 µM, the “MIC C. tropicalis IOC 4560” value [9] was 1.6 µM and the “hemolytic activity of decoralin” value [10] was “low hemolytic activity”. For the same substance, the “MIC C. albicans MDM8” value [11] was 0.8 µM, the remaining at 0.5 h [12, 15] was ~70% and the remaining at 1 h [12, 15] was < 30%. The remaining at 2 h [12, 15] was < 30% and the “MIC B. megaterium ATCC 10778” value [13] was 1.6 µM.

For “SLGALINVLKSGG-NH2 [DV, Ser-Leu-Gly-Ala-Leu-Ile-Asn-Val-Leu-Lys-Ser-Gly-Gly]”, the “Helical fraction (fH) PBS” value [1] was 0.12, the “Helical fraction (fH) POPC” value [1] was 0.08 and the “Helical fraction (fH) POPC:DOPE” value [1] was 0.11. For the same substance, the “Helical fraction (fH) POPC:POPG” value [1] was 0.41, the “Helical fraction (fH) SDS” value [1] was 0.62 and the “Helical fraction (fH) TFE/Water” value [1] was 0.90. The “Helical fraction (fH) Water” value [1] was 0.11, the “antimicrobial activity” value [14] was “No antimicrobial activities were observed; also recorded: did not exhibit antimicrobial activity” and the “Hemolytic activity, concentration of peptide needed to kill 10% of red blood cells” value [3] was 0.1 µmol/L. The MHC [3] was 0.1 µmol/L, the “MIC S. epidermidis ATCC 12228” value [4] was >50 µM and the “MIC S. marcescens ATCC 4112” value [5] was >50 µM. The “MIC E. cloacae β-12” value [6] was >50 µM, the “P. gallinaceum (% sporozoites at 0.8 μmol L^−1)” value [7] was 31% and the “antiplasmodial activity” value [7] was “did not exhibit significant antiplasmodial activity; also recorded: did not present antiplasmodial activity”. The “MIC M. luteus A270” value [8] was >50 µM, the “MIC C. tropicalis IOC 4560” value [9] was >50 µM and the “MIC C. albicans MDM8” value [11] was >50 µM. The remaining at 0.5 h [12, 15] was ~50%, the remaining at 1 h [12, 15] was ~50% and the remaining at 2 h [12, 15] was ~50%. For the same substance, the remaining at 4 h [12, 16] was ~50%, the remaining at 6 h ([12]; bovine, fetal bovine serum, 25% in water, 6 h, read-out: remaining peptide, 6 h) was ~50% and the “MIC B. megaterium ATCC 10778” value [13] was >50 µM.

In the case of “GLGALLNVIKSGL-NH2 [AV, Gly-Leu-Gly-Ala-Leu-Len-Asn-Val-Ile-Lys-Ser-Gly-Leu]”, the “Helical fraction (fH) PBS” value [1] was 0.05, the “Helical fraction (fH) POPC” value [1] was 0.03 and the “Helical fraction (fH) POPC:DOPE” value [1] was 0.08. The “Helical fraction (fH) POPC:POPG” value [1] was 0.04, the “Helical fraction (fH) SDS” value [1] was 0.31 and the “Helical fraction (fH) TFE/Water” value [1] was 0.42. The “Helical fraction (fH) Water” value [1] was 0.08, the “antimicrobial activity” value [14] was “lower antimicrobial activities than the corresponding template peptides” and the “hemolytic activity” value ([3]; 0.1 to 100 μmol L^−1) was “minimal hemolytic activity”. For the same substance, the “Hemolytic activity, concentration of peptide needed to kill 10% of red blood cells” value [3] was 100 µmol/L, the MHC [3] was >100 µmol/L and the “MIC S. epidermidis ATCC 12228” value [4] was >50 µM. For the same substance, the “MIC S. marcescens ATCC 4112” value [5] was 50 µM, the “MIC E. cloacae β-12” value [6] was >50 µM and the “P. gallinaceum (% sporozoites at 0.8 μmol L^−1)” value [7] was 90%. For the same substance, the “antiplasmodial activity” value [7] was “exhibited antiplasmodial activity”, the “MIC M. luteus A270” value [8] was 6.3 µM and the “MIC C. tropicalis IOC 4560” value [9] was 50 µM. For the same substance, the “MIC C. albicans MDM8” value [11] was 50 µM, the remaining at 0.5 h [12, 15] was ~40% and the remaining at 1 h [12, 15] was ~40%. For the same substance, the remaining at 2 h [12, 15] was ~40%, the remaining at 4 h [12, 16] was ~40% and the “remaining peptide, 4 h” value ([12]; 4 h) was ~40%. For the same substance, the “MIC B. megaterium ATCC 10778” value [13] was >50 µM.
